Results reported in patent US20230250169A1, “AXL Inhibitors for Antiviral Therapy” (BERGENBIO ASA, priority 2020, published 2023).
Entries after “also recorded” stand apart in the source; their conditions may differ. Read-outs that look alike come from different tables or passages of the source.

Tests used:
[1] = tested on: Mouse Hepatitis Virus (MHV) strain A59; test: Mouse hepatitis virus (MHV A59) infection of murine bone marrow-derived macrophages, virus load by qRT-PCR; type: cell-based; conditions: for MHV virus load in WT mBMDM: WT cells, pretreated and kept on cells
[2] = tested on: VSV/SARS-CoV-2 spike pseudovirions; type: cell-based, Green African Monkey
SARS-CoV-2 [3] = type: cell-based
SARS-CoV-2 [4] = test: SARS-CoV-2 binding on Vero E6 cells (qRT-PCR of bound viral RNA); type: cell-based, Green African Monkey; conditions: MOI=5, 15° C., 60 m
Procedure: FIG. 9 • Evaluation of SARS-CoV-2 binding on Vero E6 cells. Cells were incubated with virus (MOI=5) and treatments noted at 15° C. for 60 m. Subsequently, some cells were treated with trypsin to remove bound virus. All cells were washed extensively to remove unbound virus and cells were extracted for RNA. Viral load was determined and normalized for the host gene GAPDH. This is one of 3 different experiments yielding similar results.
In an additional set of studies with Vero E6 cells, it was evaluated whether bemcentinib or PS liposomes blocked VT SARS-CoV-2 binding. Using an MOI of 5, SARS-CoV-2 was incubated at 15° C. for 60 m with Vero E6 cells in the presence of bemcentinib or PS liposomes. Phosphatidylcholine (PC) liposomes were incubated with the cells as a control for PS-mediated viral competition; trypsin was added after virus binding to some cells as a negative control. Cells were placed in Trizol and virus binding was assessed by qRT-PCR detection of viral RNA genomes as compared to the level of a housekeeping gen mRNA, GAPDH. […] Similar studies in Vero E6 cells and other more relevant lung cells will be performed to assess virus internalization following virus binding.

SARS-CoV-2 [5] = type: cell-based; conditions: A549-hACE2 and Vero E6 cells, 1 uM, 24 h, preliminary
SARS-CoV-2 [6] = type: cell-based; conditions: for sensitivity of SARS-CoV-2 infection to inhibitor: three of the lung tumor lines from John Minna, representative data
SARS-CoV-2 [7] = type: cell-based; conditions: MOI=0.1, 24 h, inhibitor added prior to infection
SARS-CoV-2 [8] = test: BGBC020 and ACCORD-2 studies taken together; type: in vivo, human; conditions: across both BGBC020 and ACCORD-2 studies; SoC 10
SARS-CoV-2 [9] = test: SARS-CoV-2 salivary viral load (quantitative PCR) in BGBC020 patients; type: in vivo
SARS-CoV-2 [10] = test: Clinical case report: COVID-19 in a lung cancer patient on bemcentinib+erlotinib; type: in vivo
Ebola virus = conditions: one of only two of sixty compounds; cited from earlier work
SARS-CoV-2 [11] = conditions: Vero E6 and CaIU3, Dittmar et al; cited from earlier work
MHV = test: MHV-infected C57BL/6 mice treated by gavage
SARS-CoV-2 [12] = test: Phase 2 clinical trial ACCORD-2 (UK), hospitalised COVID-19 patients
SARS-CoV-2 [13] = test: Phase 2 clinical trial BGBC020 (India, South Africa), hospitalised COVID-19 patients, bemcentinib plus SoC versus SoC
[14] = tested on: VSV/SARS-CoV-2 spike pseudovirion; type: cell-based
SARS-CoV-2 [15] = type: cell-based, Green African Monkey
[16] = one high-risk patient on bemcentinib+erlotinib

## Nc1nc(Nc2ccc3c(c2)CC[C@@H](N2CCCC2)CC3)nn1-c1cc2c(nn1)-c1ccccc1CCC2 [bemcentinib, 1-(6,7-dihydro-5H-benzo[6,7]cyclohepta[1,2-c]pyridazin-3-yl)-N^3-((7-(S)-pyrrolidin-1-yl)-6,7,8,9-tetrahydro-5H-benzo[7]annulene-2-yl)-1H-1,2,4-triazole-3,5-diamine]
[1]; 1 μM, 24 h, p=0.034 in one-way ANOVA
  MHV infection of mBMDM (MHV spike gene, qRT-PCR): significantly reducing infection
[1]; 1 μM, 24 h, trend to lower virus load
  reduction of MHV virus load in ISG15 (KO) and USP18C61A/C61A mBMDM: not statistically significant; also recorded: did not reach statistical significance
[1]; BMDM from ISG15-null and USP18C61A/C61A mice, compared with wild type
  inhibitory effect on virus infection: more variable and in general reduced
[1]; MHV-infected BMDM cultures
  viral-induced syncytia formation: reduced
[1]; 1 μM, 24 h
  MHV virus load in WT mBMDM: significantly reduced MHV infection
[1]; 1 μM, 24 h, listed as Bemcentinib
  MHV virus load in WT mBMDM: reduces virus load
[1]; increasing concentrations, MOI 0.01, 24 h
  MHV infection of mBMDM (MHV spike gene, qRT-PCR): inhibitory trend; also recorded: did inhibit MHV infection
[1]; increasing concentrations, MOI 0.01, 24 h, listed as Bemcentinib
  MHV infection of mBMDM (MHV spike gene, qRT-PCR): inhibits MHV infection
[1]; primary murine BMDM, MHV, 1 μM, 20 h following infection, preliminary
  coronavirus load in cells: reduces coronavirus load
[2]
  SARS-CoV-2 spike dependent pseudovirion infection of Vero E6 cells: highly effective; also recorded: inhibited pseudovirus infection
SARS-CoV-2 [3]
  SARS-CoV-2 infection of CalU3 cells (viral load): did not inhibit
SARS-CoV-2 [4]
  SARS-CoV-2 binding to Vero E6 cells: no effect
SARS-CoV-2 [5]
  SARS-CoV-2 viral transcripts (RNAseq): dramatically reduced
SARS-CoV-2 [5]; listed as Bemcentinib
  SARS-CoV-2 viral transcripts (RNAseq): significantly reduced
SARS-CoV-2 [6]; lung line 820
  Sensitive to Bemcentinib: Yes
SARS-CoV-2 [6]; lung line CalU3
  Sensitive to Bemcentinib: No
SARS-CoV-2 [6]; lung line H322
  Sensitive to Bemcentinib: Yes
SARS-CoV-2 [6]; lung line H1650
  Sensitive to Bemcentinib: Yes
SARS-CoV-2 [6]; lung line H1819
  Sensitive to Bemcentinib: No
SARS-CoV-2 [6]; lung line H3255
  Sensitive to Bemcentinib: No
SARS-CoV-2 [6]; lung line HCC1944
  Sensitive to Bemcentinib: Mixed findings
SARS-CoV-2 [6]; lung line HCC2302
  Sensitive to Bemcentinib: Yes
SARS-CoV-2 [6]; lung line HCC4207
  Sensitive to Bemcentinib: Mixed findings
SARS-CoV-2 [6]; lung line HCC4256
  Sensitive to Bemcentinib: No
SARS-CoV-2 [6]; lung line HSAEC13
  Sensitive to Bemcentinib: Mixed findings
SARS-CoV-2 [6]
  sensitivity of SARS-CoV-2 infection to inhibitor: sensitive
SARS-CoV-2 [7]
  SARS-CoV-2 virus load in Huh7 cells: inhibited virus infection in a dose dependent manner
SARS-CoV-2 [8]
  COVID-19 related deaths: 3
SARS-CoV-2 [9]; absence of another antiviral, day 8 (8 of 12), SoC 37.5%
  patients with salivary viral load below LLOQ (500 copies/mL): approximately 66%
SARS-CoV-2 [9]; absence of another antiviral, day 11 (3 of 3), SoC 60%
  patients with salivary viral load below LLOQ (500 copies/mL): 100%
SARS-CoV-2 [9]; day 11, all patients, SoC 57%
  rate of viral clearance: 100%
SARS-CoV-2 [9]; presence of another antiviral (remdesivir or favipiravir), day 8 (9 of 11), SoC 54%
  patients with salivary viral load below LLOQ (500 copies/mL): approximately 82%
SARS-CoV-2 [9]; presence of another antiviral (remdesivir or favipiravir), day 11 (9 of 9), SoC 56%
  patients with salivary viral load below LLOQ (500 copies/mL): 100%
SARS-CoV-2 [10]; [16]
  COVID-19 disease course: 7 days
  course of COVID-19: very mild
SARS-CoV-2 [10]; one patient on bemcentinib+erlotinib
  transmission to co-habiting partner: lack of transmission
Ebola virus
  effect against Ebola infection in animal models: some protective/therapeutic effect
SARS-CoV-2 [11]
  SARS-CoV-2 infection in both cell types: reported to inhibit
MHV; C57BL/6 mice, 50,000 iu MHV, versus pooled untreated and vehicle only groups, Student's t test
  virus load in liver: significantly reduced virus load
MHV; MHV-infected C57BL/6 mice, day 3, spleen and liver RNA
  type I interferon responses (IFN related gene expression): enhancing type I interferon responses
SARS-CoV-2 [12]; ACCORD-2
  Laboratory TRAE (haem or chemistry): no TRAE haem or chemistry
  QTcF prolongation: No reported QTcF prolongation
SARS-CoV-2 [12]; by D29, of 30 patients, SoC 6 of 30
  Mortality: 1 patients
SARS-CoV-2 [13]; BGBC020
  QTcF prolongation >501 msec: No QTcF prolongation
  SUSAR: No SUSAR
SARS-CoV-2 [13]; BGBC020 interim results, secondary endpoint
  Time to NEWS2 score ≤2, Hazard ratio (95% CI): 1.10 (0.70, 1.73)
SARS-CoV-2 [13]; by D29, of 58 patients, SoC 4 of 57
  Mortality: 2 patients
SARS-CoV-2 [13]; days 2, 8, 15 and 29, versus standard of care alone
  worsening by 1, 2 or 3 points on WHO scale: lower proportion of individual patients experiencing worsening
SARS-CoV-2 [13]; of 58 patients, SoC 4
  SAE: 5 patients
SARS-CoV-2 [13]; versus SoC, interim
  NEWS2 normalisation: favours bemcentinib arm within week 1
SARS-CoV-2 [13]; versus SoC, particularly with higher baseline CRP, interim
  time to WHO OCS improvement or discharge (primary endpoint): Favours the bemcentinib arm

## CN(C)C(=O)COC(=O)Cc1ccc(OC(=O)c2ccc(NC(=N)N)cc2)cc1 [camostat]
[14]
  hACE2-dependent pseudovirion infection (luminescence): blocked infection, but to a lesser extent

## CC(C)C[C@H](NC(=O)[C@H]1O[C@@H]1C(=O)O)C(=O)NCCCCN=C(N)N [E64]
[14]
  hACE2-dependent pseudovirion infection (luminescence): effectively blocked infection
SARS-CoV-2 [15]
  WT SARS-CoV-2 infection of Vero E6 cells (viral load): blocked infection
SARS-CoV-2 [6]
  sensitivity of SARS-CoV-2 infection to inhibitor: sensitive
